Results from PubChem BioAssay AID248 (DTP/NCI, 2004).
Toxic doses and inconclusive results are not listed. No stated cut-off is given here; in the data, active means T/C of 150% or more; inactive means T/C below 125%.

System: L1210 leukemia ip in BDF1 mice, survival T/C
Assay: NCI In Vivo Anticancer Drug Screen. Data for tumor model L1210 Leukemia (intraperitoneal) in B6D2F1 (BDF1) mice
Conditions: endpoint: mean survival time, higher = longer survival
Summary of the method: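 Value reflects the ratio of survival in compound-treated mice to survival in vehicle-treated controls, with both groups carrying the same transplanted tumor.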

[1] = dose: 100.0 mg/kg/injection, schedule: Q01DX001 (ip), vehicle: other
[2] = dose: 200.0 mg/kg/injection, schedule: Q01DX001 (ip), vehicle: other
[3] = dose: 400.0 mg/kg/injection, schedule: Q01DX001 (ip), vehicle: other
[4] = dose: 100.0 mg/kg/injection, schedule: Q01DX001 (ip), vehicle: carboxymethylcellulose (CMC)
[5] = dose: 200.0 mg/kg/injection, schedule: Q01DX001 (ip), vehicle: carboxymethylcellulose (CMC)
[6] = dose: 400.0 mg/kg/injection, schedule: Q01DX001 (ip), vehicle: carboxymethylcellulose (CMC)
[7] = dose: 100.0 mg/kg/injection, schedule: Q04DX003 (ip), vehicle: Klucel (hydroxypropylcellulose) (HPC)
[8] = dose: 200.0 mg/kg/injection, schedule: Q04DX003 (ip), vehicle: Klucel (hydroxypropylcellulose) (HPC)
[9] = dose: 400.0 mg/kg/injection, schedule: Q04DX003 (ip), vehicle: Klucel (hydroxypropylcellulose) (HPC)
[10] = dose: 100.0 mg/kg/injection, schedule: Q01DX001 (ip), vehicle: gum acacia
[11] = dose: 200.0 mg/kg/injection, schedule: Q01DX001 (ip), vehicle: gum acacia
[12] = dose: 200.0 mg/kg/injection, schedule: Q01DX009 (ip), vehicle: Klucel (hydroxypropylcellulose) (HPC)
[13] = dose: 400.0 mg/kg/injection, schedule: Q01DX009 (ip), vehicle: Klucel (hydroxypropylcellulose) (HPC)

Measured: T/C

COc1ccc(CNCCCCO)cc1
inactive: dose: 50.0 mg/kg/injection, schedule: Q01DX009 (ip), vehicle: other 106 % of control | [1] 104 % of control | dose: 100.0 mg/kg/injection, schedule: Q01DX009 (ip), vehicle: other 102 % of control | [2] 106 % of control | dose: 200.0 mg/kg/injection, schedule: Q01DX009 (ip), vehicle: other 95 % of control | [3] 97 % of control

CC1(CCC#N)CCC(N)=CC1=O (stereo not drawn)
inactive: [4] 96 % of control | [5] 98 % of control | [6] 96 % of control

Clc1ccc(N=Cc2ccc(C=Nc3ccc(Cl)c(Cl)c3)cc2)cc1Cl
inactive: [7] 97 % of control | dose: 200.0 mg/kg/injection, schedule: Q01DX009 (ip), vehicle: saline sonified 89 % of control | [8] 89 % of control | [9] 96 % of control

Nc1nc(N)c(N=O)c(Nc2ccc(Cl)c(Cl)c2)n1
inactive: dose: 3.12 mg/kg/injection, schedule: Q01DX Z (ip), vehicle: carboxymethylcellulose (CMC) 117 % of control | dose: 6.25 mg/kg/injection, schedule: Q01DX Z (ip), vehicle: carboxymethylcellulose (CMC) 104 % of control | dose: 12.5 mg/kg/injection, schedule: Q01DX Z (ip), vehicle: carboxymethylcellulose (CMC) 106 % of control | dose: 25.0 mg/kg/injection, schedule: Q01DX Z (ip), vehicle: carboxymethylcellulose (CMC) 109 % of control | dose: 100.0 mg/kg/injection, schedule: Q01DX Z (ip), vehicle: carboxymethylcellulose (CMC) 89 % of control | dose: 400.0 mg/kg/injection, schedule: Q01DX Z (ip), vehicle: carboxymethylcellulose (CMC) 86 % of control

COc1ccc(S(=O)(=O)F)cc1NC(=O)CCc1ccc(N2C(N)=NC(N)=NC2(C)C)cc1
inactive: [10] 115 % of control | [11] 101 % of control

O=P(OCc1ccccc1)(N(CCO)CCO)N(CCCl)CCCl (stereo not drawn)
inactive: dose: 25.0 mg/kg/injection, schedule: Q01DX Z (ip), vehicle: saline 91 % of control | dose: 50.0 mg/kg/injection, schedule: Q01DX Z (ip), vehicle: saline 100 % of control | dose: 100.0 mg/kg/injection, schedule: Q01DX Z (ip), vehicle: saline 94 % of control | dose: 200.0 mg/kg/injection, schedule: Q01DX Z (ip), vehicle: saline 103 % of control

O=C(O)c1ccccc1C(=O)Nc1ccccc1F
inactive: [7] 97 % of control | [12] 86 % of control | [8] 92 % of control | [13] 91 % of control | [9] 91 % of control

CN(CCOc1ccccc1O)CCOc1ccccc1O
inactive: [7] 105 % of control | [12] 101 % of control | [8] 106 % of control | [13] 86 % of control | [9] 101 % of control

COC(=O)Cc1c(C(=O)OC)c(O)cc(O)c1C(=O)OC
inactive: dose: 50.0 mg/kg/injection, schedule: Q01DX001 (ip), vehicle: carboxymethylcellulose (CMC) 100 % of control | [4] 97 % of control | [5] 100 % of control | [6] 100 % of control

CC(=O)OCCc1cccc(C)c1
inactive: dose: 100.0 mg/kg/injection, schedule: Q04DX002 (ip), vehicle: Klucel (hydroxypropylcellulose) (HPC) 104 % of control | dose: 200.0 mg/kg/injection, schedule: Q04DX002 (ip), vehicle: Klucel (hydroxypropylcellulose) (HPC) 115 % of control | dose: 400.0 mg/kg/injection, schedule: Q04DX002 (ip), vehicle: Klucel (hydroxypropylcellulose) (HPC) 108 % of control

N#C/C(=C\c1c(Cl)cccc1Cl)c1ccc([N+](=O)[O-])cc1
inactive: dose: 100.0 mg/kg/injection, schedule: Q04DX003 (ip), vehicle: saline with Tween-80 106 % of control | dose: 200.0 mg/kg/injection, schedule: Q04DX003 (ip), vehicle: saline with Tween-80 95 % of control | dose: 400.0 mg/kg/injection, schedule: Q04DX003 (ip), vehicle: saline with Tween-80 92 % of control

CC1CCCC(C)N1N (stereo not drawn)
inactive: dose: 100.0 mg/kg/injection, schedule: Q01DX001 (ip), vehicle: saline with Tween-80 97 % of control | dose: 200.0 mg/kg/injection, schedule: Q01DX001 (ip), vehicle: saline with Tween-80 93 % of control | dose: 400.0 mg/kg/injection, schedule: Q01DX001 (ip), vehicle: saline with Tween-80 95 % of control

CCN(CC)CCCC(C)Nc1nnc2c(=O)n(C)c(=O)n(C)c2n1 (stereo not drawn)
inactive: dose: 75.0 mg/kg/injection, schedule: Q04DX003 (ip), vehicle: saline 89 % of control | dose: 150.0 mg/kg/injection, schedule: Q04DX003 (ip), vehicle: saline 90 % of control | dose: 300.0 mg/kg/injection, schedule: Q04DX003 (ip), vehicle: saline 87 % of control

O=C1CC2(CCCCC2)CO1
inactive: dose: 0.78 mg/kg/injection, schedule: Q04DX003 (ip), vehicle: saline 100 % of control | dose: 1.56 mg/kg/injection, schedule: Q04DX003 (ip), vehicle: saline 100 % of control | dose: 3.12 mg/kg/injection, schedule: Q04DX003 (ip), vehicle: saline 103 % of control | dose: 6.25 mg/kg/injection, schedule: Q04DX003 (ip), vehicle: saline 103 % of control | dose: 12.5 mg/kg/injection, schedule: Q04DX003 (ip), vehicle: saline 92 % of control

Cc1ccc2c(c1)c(C)cc(=O)n2C
inactive: [1] 96 % of control | [2] 117 % of control

Cc1ccc(Nc2ccc([N+](=O)[O-])cc2)cc1
inactive: [10] 93 % of control | [11] 100 % of control

S=C([S-])N(Cc1ccccc1)Cc1ccccc1.S=C([S-])N(Cc1ccccc1)Cc1ccccc1.[Zn]
inactive: dose: 50.0 mg/kg/injection, schedule: Q01DX009 (ip), vehicle: saline 104 % of control | dose: 100.0 mg/kg/injection, schedule: Q01DX009 (ip), vehicle: saline 102 % of control | dose: 100.0 mg/kg/injection, schedule: Q04DX003 (ip), vehicle: saline 94 % of control | dose: 200.0 mg/kg/injection, schedule: Q01DX009 (ip), vehicle: saline 104 % of control | dose: 200.0 mg/kg/injection, schedule: Q04DX003 (ip), vehicle: saline 97 % of control | dose: 400.0 mg/kg/injection, schedule: Q04DX003 (ip), vehicle: saline 89 % of control

CC/C(C)=N\NC(N)=S
inactive: dose: 6.25 mg/kg/injection, schedule: Q01DX009 (ip), vehicle: Klucel (hydroxypropylcellulose) (HPC) 91 % of control | dose: 12.5 mg/kg/injection, schedule: Q01DX009 (ip), vehicle: Klucel (hydroxypropylcellulose) (HPC) 92 % of control | dose: 12.5 mg/kg/injection, schedule: Q04DX002 (ip), vehicle: Klucel (hydroxypropylcellulose) (HPC) 92 % of control | dose: 25.0 mg/kg/injection, schedule: Q04DX002 (ip), vehicle: Klucel (hydroxypropylcellulose) (HPC) 98 % of control

Cc1cc(O)c(C)c2c1CC[C@H]1[C@@H]2OC(=O)[C@@H]1C
inactive: [1] 98 % of control | [2] 92 % of control | [3] 97 % of control
